The supplement of paper PMC10307832

How the values were obtained:
Test in all cases: relative viability (nuclei count vs DMSO), 5 days (fraction); higher = more cells survive
Motesanib + Pemetrexed = compound: CC1(C)CNc2cc(NC(=O)c3cccnc3NCc3ccncc3)ccc21 [Motesanib] + Nc1nc2[nH]cc(CCc3ccc(C(=O)N[C@@H](CCC(=O)O)C(=O)O)cc3)c2c(=O)[nH]1 [Pemetrexed] (partner 0.2 µM)
How it was run: (§1)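 Lung cancer cell lines were seeded in 1536-well plates and dosed by pin tool the next day, with either a single drug or a fixed anchor-drug dose combined with five library-drug doses (not always all listed) spaced in √10 steps. Five days later, one step fixed the cells and stained their nuclei (final 0.05% Triton X-100, 1% formaldehyde, 1 ug/ml Hoechst), and nuclei were counted on 4× images. Relative viability is the nuclei count in treated wells divided by the count in vehicle wells, and each value is the median of duplicate plates.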

[1] = compound: C[C@@]1(C(=O)Nc2ccc(F)nc2)CCCN1c1nc(Nc2cc(C3CC3)n[nH]2)c2cccn2n1 + COc1cccc2cc(-c3nc([C@H]4CC[C@H](C(=O)O)CC4)n4ncnc(N)c34)[nH]c12 [OSI-027] (partner 0.5 µM)
How it was run: as §1

[2] = compound: C[C@@]1(C(=O)Nc2ccc(F)nc2)CCCN1c1nc(Nc2cc(C3CC3)n[nH]2)c2cccn2n1 + Nc1ncn([C@H]2C[C@H](O)[C@@H](CO)O2)c(=O)n1 [Decitabine] (partner 2 µM)
How it was run: as §1

[3] = compound: C[C@@]1(C(=O)Nc2ccc(F)nc2)CCCN1c1nc(Nc2cc(C3CC3)n[nH]2)c2cccn2n1 + O=C(c1cc(Cc2n[nH]c(=O)c3ccccc23)ccc1F)N1CCN(C(=O)C2CC2)CC1 [Olaparib] (partner 8 µM)
How it was run: as §1

Row | Cell Line | relative viability (Motesanib + Pemetrexed; first compound 0.01 µM) | relative viability (Motesanib + Pemetrexed; first compound 0.03162 µM) | relative viability (Motesanib + Pemetrexed; first compound 0.1 µM) | relative viability (Motesanib + Pemetrexed; first compound 0.3162 µM) | relative viability (Motesanib + Pemetrexed; first compound 1 µM) | relative viability ([1]; first compound 0.04 µM) | relative viability ([1]; first compound 0.1265 µM) | relative viability ([1]; first compound 0.4 µM) | relative viability ([1]; first compound 1.265 µM) | relative viability ([2]; first compound 0.04 µM) | relative viability ([2]; first compound 0.1265 µM) | relative viability ([2]; first compound 0.4 µM) | relative viability ([2]; first compound 1.265 µM) | relative viability ([3]; first compound 0.04 µM) | relative viability ([3]; first compound 0.1265 µM) | relative viability ([3]; first compound 0.4 µM) | relative viability ([3]; first compound 1.265 µM)
1 | HOP-62 | 0.288 | 0.296 | 0.214 | 0.209 | 0.173 | 0.758 | 0.574 | 0.641 | 0.657 | 0.181 | 0.203 | 0.224 | 0.173 | 0.39 | 0.172 | 0.386 | 0.404
2 | NCI-H520 | 0.577 | 0.594 | 0.51 | 0.586 | 0.643 | 0.328 | 0.297 | 0.257 | 0.22 | 0.498 | 0.493 | 0.416 | 0.491 | 0.334 | 0.33 | 0.298 | 0.291
3 | NCI-H1755 | 0.403 | 0.356 | 0.38 | 0.401 | 0.32 | 0.695 | 0.355 | 0.589 | 0.484 | 0.698 | 0.687 | 0.704 | 0.74 | 0.93 | 0.73 | 0.759 | 0.851
4 | NCI-H2023 | 0.224 | 0.201 | 0.245 | 0.217 | 0.263 | 0.3 | 0.088 | 0.105 | 0.116 | 0.234 | 0.228 | 0.177 | 0.139 | 0.456 | 0.422 | 0.333 | 0.122
5 | NCI-H2009 | 0.949 | 1.02 | 1.01 | 1.06 | 0.973 | 0.634 | 0.371 | 0.403 | 0.42 | 0.401 | 0.369 | 0.406 | 0.313 | 0.718 | 0.657 | 0.726 | 0.663
